From US20130022590A1, “Compositions Comprising Zinc Finger Domains and Uses Therefor” (priority 2009, published 2013) come the findings set out here.

In test [1] the test system is ssRNA oligonucleotide containing a single AGGUAA site (GCAACCAGGUAAAGUCU, SEQ ID NO: 28). Briefly: Fluorescence anisotropy titration, single-site ssRNA. The class given is binding. To be noted: GST fusions; ssRNA with 5′ fluorescein tag and a single AGGUAA site; 25° C. On the procedure: (§1) Fluorescence Anisotropy titrations e.g., as shown in FIGS. 1D-F, 8 and 35, were carried out using standard protocols. In brief, 5′-Fluorescein-labeled RNA oligonucleotides were quantified by A260, correcting for fluorescein absorbance by using A493. For single-site experiments, the sequence GCAACCAGGUAAAGUCU (SEQ ID NO: 28), or single base mutants thereof, was used. For double-site experiments, two AGGUAA sites were separated by different length sequences as indicated, and the total oligonucleotide lengths were kept constant by the symmetrical addition of adenines to each end. […] Protein was titrated into this starting solution and anisotropy values measured on a Cary Eclipse fluorescence spectrophotometer fitted with manual polarizer and long-pass filters set to 475 and 515 nm for excitation and emission, respectively. […] Association constants were determined by nonlinear least squares regression analysis using a 1:1 binding model.
Constructs of the two individual domains, F1 (FIG. 2, residues 1-45) and F2 (FIG. 2, residues 65-95), were cloned expressed and purified as GST fusions described in section 1.2 above, and tested their ability to bind ssRNA by fluorescence anisotropy as described in section 1.5 above, using a ssRNA oligonucleotide bearing a 5′ fluorescein tag and containing a single AGGUAA site.

Test [2] concerns AGAUAA ssRNA. Briefly: Fluorescence anisotropy binding assay, AGAUAA substrate. Conditions: FIG. 19 and FIG. 20. On the procedure: as §1
To determine whether changing arginine-82 (R82) would affect the binding preference of ZRANB2-F2 from GGU to GAU, the point mutation R82Q in ZNF 2 of ZRANB2 was made and the ability of both the wild type (W) protein and the R82Q mutant to bind to AGGUAA and AGAUAA was assessed by fluorescence anisotropy binding assays as described previously in Example 1.

The test system of test [3] is short (6 or 10 nt) RNA oligonucleotides containing a single AGGUAA motif. In words: NMR chemical-shift perturbation (15N-HSQC) RNA titration. The class given is binding. Conditions: 15N-labeled F2. How it is done: In brief, F2 and F12 were dialysed into 25 mM potassium phosphate (pH 7.0), 25 mM NaCl, and 0.5 mM DTT and concentrated to 0.4-1 mM. All spectra were recorded on a Bruker Avance 600 spectrometer equipped with a cryoprobe. 1H, 15N, and 13C assignments were obtained from HNCACB, CB-CA(CO)NH, HCCH-TOCSY, NOESY, and TOCSY spectra acquired at 2° C., 5° C., or 25° C. Dihedral angle restraints were obtained by analysis of an HNHA spectrum as previously described in Vuister G. W. and Bax A. 1993 J Am Chem Soc 115: 7772-7777. NMR data were processed by using XWINNMR/Topspin (Bruker) and analyzed with SPARKY (T. D. Goddard and D. G. Kneller, University of California, San Francisco). The structure of F2 was calculated from NOE and Ø angle constraints (e.g., FIGS. 5 and 9C) by using a protocol as described in Plambeck C. A., et al., 2003 J Biol Chem 278: 22805-22811.
For RNA titrations, deprotected RNA oligonucleotides i.e., having the sequence AGGUAA, CCAGGUAAAG (SEQ ID NO: 25), or AGGUAAAGGUAA (SEQ ID NO: 26) and the appropriate protein were dialyzed into 10 mM Mops (pH 7.2) and 0.5 mM DTT. Protein and RNA concentrations were calculated from A280 and A260, respectively. Final concentrations of complexes after titrations were typically approximately 0.1-0.5 mM. Assignments of the F2:RNA complex (1:1 or 1:1.2 molar ratio) were made at 25° C. as described above. […]

With “F1: F1 zinc finger domain (residues 1-45 of human ZRANB2) (MSTKNFRVSDGDWICPDKKCGNVNFARRTSCNRCGREKTTEAKMM; F1 zinc finger domain GST fusion in some uses; UniProt O95218 1-45, looked up, fragment)”, in test [1], the association constant was 3e+06 M⁻¹.

In test [1], “F2: F2 zinc finger domain (residues 65-95 of human ZRANB2), wild type (SANDWQCKTCSNVNWARRSECNMCNTPKYAK; F2 zinc finger domain GST fusion in some uses; UniProt O95218 65-95, looked up, fragment)” yielded an association constant of 1e+06 M⁻¹. For the same substance, the “binding affinity to guanine base relative to adenine base at position 3 (AGGUAA vs AGAUAA)” value in test [2] is reported as “about 4 fold”. Besides, the “complex formed on RNA titration” value in test [3] is reported as “well-defined 1:1 complex”.
